Source: patent US9688642B2, “Substituted pyrazines as GPR40 agonists” (Janssen Pharmaceutica NV, priority 2014, dated 2017)
pEC50: −log10 of the molar value. Values joined by “and” are separate entries in the source; they are usually repeats but may differ in a detail not shown here. Equal values may be shown once.

Legend:
Male SD rats = experiment: Oral glucose tolerance test; assay type: in vivo, rat; conditions: dosed 30 min prior to oGTT (glucose 2 g/kg po), blood glucose AUC t=0 to t=120 minutes vs vehicle
Description: Male SD rats (200-250 g) were housed 2 per cage in a temperature-controlled room with a 12-hour light/dark cycle. They were allowed ad libitum access to water and fed with normal rodent chow. The night before the oral glucose tolerance test (oGTT), the rats were transferred to clean cages and fasted overnight. On the morning of the oGTT, the rats were weighed and randomized into groups based on fasted blood glucose and body weight. Rats were dosed with vehicle (0.5% methocel) or compounds thirty min prior to the oGTT (glucose, 2 g/kg, po). Blood was collected from the tail vein at 0, 10, 30, 60 and 120 minutes after glucose challenge to measure blood glucose; plasma was used to determine insulin levels.

rat GPR40 = rat GPR40 (Rattus norvegicus (Rat), UniProt Q8K3T4); experiment: GPR40 calcium flux assay, HEK293 cells stably expressing rat GPR40; assay type: cell-based; conditions: transfected HEK293 cells stably expressing rat GPR40; individual determinations listed; read-out: rGPR40 Ca2+ Assay EC50
Description: (§1) Compounds were tested in a calcium flux assay using transfected HEK293 cells stably expressing either human GPR40 or rat GPR40. Human GPR40 expressing cells were cultured in DMEM-High Glucose media supplemented with 10% fetal bovine serum, 1×L-Glutamine, 1× Penicillin/Streptomycin and 500 μg/mL G418. Rat GPR40 expressing cells were cultured in DMEM-High Glucose media supplemented with 10% fetal bovine serum and 1 μg/mL puromycin. Cells were plated into poly-D-lysine coated 384-well plates and cultured overnight in a 37° C. humidified tissue culture incubator under 5% CO2/90% O2 atmosphere. On the day of the experiment, the culture media was replaced with assay buffer (HBSS, 20 mM HEPES, 0.1% BSA) and the cells incubated at 37° C. for 1 h. Calcium-sensitive fluorescent dye (Fluo 8 No-Wash Calcium Dye, ABD Bioquest) was then added and the cells incubated for another 30 min at 37° C. followed by 15 min at room temperature while protected from the light. The cell plate and a plate of diluted compounds of Formula (I) were loaded into a fluorescent plate reader that added compounds onto the cells while measuring the fluorescence intensity of each well. The plate reader recorded fluorescence intensity at 1 second intervals for 8 min and provided the data for analysis in an Excel format. EC50 values were calculated using Prism (GraphPad) software.

human GPR40 = human GPR40 (Homo sapiens (Human), UniProt O14842); experiment: GPR40 calcium flux assay, HEK293 cells stably expressing human GPR40; assay type: cell-based; conditions: transfected HEK293 cells stably expressing human GPR40; individual determinations listed; read-out: hGPR40 Ca2+ Assay EC50
Description: as §1

Chain of human GPR40 (O14842 whole entry): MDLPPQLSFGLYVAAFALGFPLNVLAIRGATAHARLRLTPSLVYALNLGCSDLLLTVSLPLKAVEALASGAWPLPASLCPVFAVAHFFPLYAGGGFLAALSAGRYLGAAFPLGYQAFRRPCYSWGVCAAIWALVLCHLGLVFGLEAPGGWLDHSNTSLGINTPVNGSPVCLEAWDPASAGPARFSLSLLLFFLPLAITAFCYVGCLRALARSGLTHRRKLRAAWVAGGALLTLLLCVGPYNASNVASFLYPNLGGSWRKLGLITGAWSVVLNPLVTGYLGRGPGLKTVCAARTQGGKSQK
Chain of rat GPR40 (Q8K3T4 whole entry): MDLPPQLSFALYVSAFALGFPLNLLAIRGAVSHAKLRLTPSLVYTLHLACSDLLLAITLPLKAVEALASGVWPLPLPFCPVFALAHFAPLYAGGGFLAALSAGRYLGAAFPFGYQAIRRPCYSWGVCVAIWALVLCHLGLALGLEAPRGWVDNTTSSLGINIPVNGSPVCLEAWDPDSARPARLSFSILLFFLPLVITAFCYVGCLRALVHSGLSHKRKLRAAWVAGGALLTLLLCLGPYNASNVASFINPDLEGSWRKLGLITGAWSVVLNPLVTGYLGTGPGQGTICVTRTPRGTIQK

Row | SMILES | Percent Lowering of Glucose (AUC compound vs. AUC Vehicle) (Male SD rats) | EC50 (rat GPR40) | EC50 (human GPR40) | pEC50 (rat GPR40) | pEC50 (human GPR40)
1 | COc1ccc(F)c(-c2ncc(COc3cccc([C@@H](CC(=O)O)C4CC4)c3)nc2C2=CCCC2(C)C)c1 [Cpd 30, (3S)-3-cyclopropyl-3-[3-[[6-(5,5-dimethylcyclopenten-1-yl)-5-(2-fluoro-5-methoxy-phenyl)pyrazin-2-yl]methoxy]phenyl]propanoic acid] | 87% | – | – | – | –
2 | COc1ccc(F)c(-c2ncc(COc3cccc([C@@H](CC(=O)O)C4CC4)c3)nc2OC2CCCC2)c1 [Cpd 13, (3S)-3-[3-[[6-(cyclopentoxy)-5-(2-fluoro-5-methoxy-phenyl)pyrazin-2-yl]methoxy]phenyl]-3-cyclopropyl-propanoic acid] | 84% | 31 nM and 30 nM (2×) and 53 nM and 33 nM | 19 nM (2×) and 20 nM and 10 nM and 8 nM | – | –
3 | COc1ccc(F)c(-c2ncc(COc3cccc([C@@H](CC(=O)O)C4CC4)c3)nc2OCC2CC2)c1 [Cpd 21, (3S)-3-cyclopropyl-3-[3-[[6-(cyclopropylmethoxy)-5-(2-fluoro-5-methoxy-phenyl)pyrazin-2-yl]methoxy]phenyl]propanoic acid] | – | – | – | 7.19 and 7.24 | 7.77 and 7.92
4 | COc1ccc(F)c(-c2ncc(COc3cccc([C@@H](CC(=O)O)C4CC4)c3)nc2OCCC(F)(F)F)c1 [Cpd 32, (3S)-3-cyclopropyl-3-[3-[[5-(2-fluoro-5-methoxy-phenyl)-6-(3,3,3-trifluoropropoxy)pyrazin-2-yl]methoxy]phenyl]propanoic acid] | – | – | – | 6.92 and 7.03 | 7.52 and 7.55
5 | COc1ccc(F)c(-c2ncc(COc3cccc([C@@H](CC(=O)O)C4CC4)c3)nc2CC(C)(C)C)c1 [Cpd 1, (3S)-3-cyclopropyl-3-[3-[[6-(2,2-dimethylpropyl)-5-(2-fluoro-5-methoxy-phenyl)pyrazin-2-yl]methoxy]phenyl]propanoic acid] | – | – | – | 7.41 and 7.60 | 8.70
6 | COc1ccc(F)c(-c2ncc(COc3cccc([C@@H](CC(=O)O)C4CC4)c3)nc2NCC(C)(C)C)c1 [Cpd 44, (3S)-3-cyclopropyl-3-[3-[[6-(2,2-dimethylpropylamino)-5-(2-fluoro-5-methoxy-phenyl)pyrazin-2-yl]methoxy]phenyl]propanoic acid] | – | – | – | 7.23 and 7.16 | 7.77 and 7.96
7 | COc1ccc(F)c(-c2ncc(COc3cccc([C@@H](CC(=O)O)C4CC4)c3)nc2-c2ccc(C)s2)c1 [Cpd 36, (3S)-3-cyclopropyl-3-[3-[[5-(2-fluoro-5-methoxy-phenyl)-6-(5-methyl-2-thienyl)pyrazin-2-yl]methoxy]phenyl]propanoic acid] | – | – | – | 6.93 and 6.96 and 6.98 and 7.07 | 7.40 and 7.42
8 | COc1ccc(F)c(-c2ncc(COc3cccc([C@@H](CC(=O)O)C4CC4)c3)nc2OC2CCCCCC2)c1 [Cpd 27, (3S)-3-[3-[[6-(cycloheptoxy)-5-(2-fluoro-5-methoxy-phenyl)pyrazin-2-yl]methoxy]phenyl]-3-cyclopropyl-propanoic acid] | – | – | – | 7.32 and 7.47 | 7.55 and 7.68
9 | COc1cc(-c2ncc(COc3cccc([C@@H](CC(=O)O)C4CC4)c3)nc2CC(C)C)c(F)cn1 [Cpd 2, (3S)-3-cyclopropyl-3-[3-[[5-(5-fluoro-2-methoxy-4-pyridyl)-6-isobutyl-pyrazin-2-yl]methoxy]phenyl]propanoic acid] | 87% | 7 nM (2×) and 8 nM and 12 nM | 2 nM (2×) and 1 nM and 3 nM | – | –
10 | COc1ccc(F)c(-c2ncc(COc3cccc([C@@H](CC(=O)O)C4CC4)c3)nc2N2CCCCC2)c1 [Cpd 22, (3S)-3-cyclopropyl-3-[3-[[5-(2-fluoro-5-methoxy-phenyl)-6-(1-piperidyl)pyrazin-2-yl]methoxy]phenyl]propanoic acid] | – | – | – | 7.28 and 7.34 and 7.37 and 7.51 | 7.74 and 7.92
11 | COc1ccc(F)c(-c2ncc(COc3cccc([C@@H](CC(=O)O)C4CC4)c3)nc2C=C(C)C)c1 [Cpd 8, (3S)-3-cyclopropyl-3-[3-[[5-(2-fluoro-5-methoxy-phenyl)-6-(2-methylprop-1-enyl)pyrazin-2-yl]methoxy]phenyl]propanoic acid] | 91% | – | – | 7.41 and 7.54 and 7.12 and 7.30 | 8.00 and 8.05 and 7.85 and 8.10 and 8.22
12 | COc1ccc(F)c(-c2ncc(COc3cccc([C@@H](CC(=O)O)C4CC4)c3)nc2N2CC3(CCC3)C2)c1 [Cpd 6, (3S)-3-[3-[(6-[2-azaspiro[3.3]heptan-2-yl]-5-(2-fluoro-5-methoxyphenyl)pyrazin-2-yl)methoxy]phenyl]-3-cyclopropylpropanoic acid] | – | – | – | 7.77 and 7.85 | 8.30 and 8.40
13 | COc1ccc(F)c(-c2ncc(COc3cccc([C@@H](CC(=O)O)C4CC4)c3)nc2-c2ccc(C(C)C)cc2)c1 [Cpd 25, (3S)-3-cyclopropyl-3-[3-[[5-(2-fluoro-5-methoxy-phenyl)-6-(4-isopropylphenyl)pyrazin-2-yl]methoxy]phenyl]propanoic acid] | – | – | – | 7.35 and 7.40 | 7.64 and 7.74
14 | COc1ccc(F)c(-c2ncc(COc3cccc([C@@H](CC(=O)O)C4CC4)c3)nc2OCC2CC(C)(C)C2)c1 [Cpd 42, (3S)-3-cyclopropyl-3-[3-[[6-[(3,3-dimethylcyclobutyl)methoxy]-5-(2-fluoro-5-methoxy-phenyl)pyrazin-2-yl]methoxy]phenyl]propanoic acid] | – | – | – | 7.49 and 7.54 | 7.77 and 7.85
15 | COc1ccc(F)c(-c2ncc(COc3cccc([C@@H](CC(=O)O)C4CC4)c3)nc2-c2ccccc2)c1 [Cpd 18, (3S)-3-cyclopropyl-3-[3-[[5-(2-fluoro-5-methoxy-phenyl)-6-phenyl-pyrazin-2-yl]methoxy]phenyl]propanoic acid] | – | – | – | 6.98 and 7.17 | 7.89 and 8.00
16 | COc1ccc(F)c(-c2ncc(COc3cccc([C@@H](CC(=O)O)C4CC4)c3)nc2-c2ccc(C(C)(C)C)s2)c1 [Cpd 43, (3S)-3-[3-[[6-(5-tert-butyl-2-thienyl)-5-(2-fluoro-5-methoxy-phenyl)pyrazin-2-yl]methoxy]phenyl]-3-cyclopropyl-propanoic acid] | – | – | – | 7.09 and 7.26 | 7.82 and 7.92
17 | COc1ccc(F)c(-c2ncc(COc3cccc([C@@H](CC(=O)O)C4CC4)c3)nc2-c2cccc(C)c2)c1 [Cpd 20, (3S)-3-cyclopropyl-3-[3-[[5-(2-fluoro-5-methoxy-phenyl)-6-(m-tolyl)pyrazin-2-yl]methoxy]phenyl]propanoic acid] | – | – | – | 7.05 and 7.11 | 7.82 and 7.96
18 | CCCCc1nc(COc2cccc([C@@H](CC(=O)O)C3CC3)c2)cnc1-c1cc(OC)ccc1F [Cpd 3, (3S)-3-[3-[[6-butyl-5-(2-fluoro-5-methoxy-phenyl)pyrazin-2-yl]methoxy]phenyl]-3-cyclopropyl-propanoic acid] | – | – | – | 7.48 and 7.59 | 8.52 and 8.70
19 | COc1ccc(F)c(-c2ncc(COc3cccc([C@@H](CC(=O)O)C4CC4)c3)nc2OC2COC2)c1 [Cpd 41, (3S)-3-cyclopropyl-3-[3-[[5-(2-fluoro-5-methoxy-phenyl)-6-(oxetan-3-yloxy)pyrazin-2-yl]methoxy]phenyl]propanoic acid] | – | – | – | 6.26 and 6.38 | 7.10 and 7.16
20 | COc1ccc(F)c(-c2ncc(COc3cccc([C@@H](CC(=O)O)C4CC4)c3)nc2CC(C)C)c1 [Cpd 5, (3S)-3-cyclopropyl-3-[3-[[5-(2-fluoro-5-methoxy-phenyl)-6-isobutyl-pyrazin-2-yl]methoxy]phenyl]propanoic acid] | – | – | – | 7.92 and 8.00 | 8.52 and 8.70
21 | COc1ccc(F)c(-c2ncc(COc3cccc([C@@H](CC(=O)O)C4CC4)c3)nc2N2CCOCC2)c1 [Cpd 45, (3S)-3-cyclopropyl-3-[3-[[5-(2-fluoro-5-methoxy-phenyl)-6-morpholinopyrazin-2-yl]methoxy]phenyl]propanoic acid] | – | – | – | 6.86 and 6.87 | 7.47
